Experimental data published in US8765744B2, “Azaspirohexanones” (Boehringer Ingelheim International GmbH, priority 2010, dated 2014).

Biological target: 11β-HSD1 (Homo sapiens (Human), UniProt P28845)
Details: read-out: Inhibitory activity on 11β-HSD 1, IC50; human liver microsomes; 1 hour at 37° C.; NADPH 200 μM, cortisone 80 nM; HTRF cortisol detection
Description: The biological properties (inhibitory activity on 11β-hydroxysteroid dehydrogenase 1) of the new compounds may be investigated as follows:
Briefly, compounds are incubated for 1 hour at 37° C. in Tris buffer (20 mM tris, 5 mM EDTA, pH 6.0) containing NADPH (200 μM) and cortisone (80 nM). Cortisol generated in the reaction is then detected with a competitive immunoassay, involving two HTRF conjugates: cortisol linked to XL665 and anti-cortisol antibody labeled with Europium cryptate. The incubation period for detection reaction is typically 2 hours. […] The ratio of the two emission signals is then calculated (Em665*10000/Em615). […] Each assay also contains a calibration curve with cortisol to transform the fluorescent data into cortisol concentrations. Percent inhibition (% CTL) of each compound is determined relative to the carbenoxolone signal and IC50 curves are generated.

Chain of 11β-HSD1 (P28845 whole entry): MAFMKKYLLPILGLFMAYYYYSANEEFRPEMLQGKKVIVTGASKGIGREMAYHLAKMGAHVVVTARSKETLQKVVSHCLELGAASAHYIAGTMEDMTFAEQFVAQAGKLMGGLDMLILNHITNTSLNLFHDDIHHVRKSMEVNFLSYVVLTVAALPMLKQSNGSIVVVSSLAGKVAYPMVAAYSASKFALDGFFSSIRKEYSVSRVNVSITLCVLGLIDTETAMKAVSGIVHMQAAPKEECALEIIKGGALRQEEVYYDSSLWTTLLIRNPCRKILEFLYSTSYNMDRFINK

Row | SMILES | IC50
1 | C[C@@H](c1ccc(-c2ccn(C)c(=O)c2)cc1)N1CCC2(CCC3(CC2)OCC(C)(C)CO3)OC1=O [Example 16, 12,12-Dimethyl-3-{(S)-1-[4-(1-methyl-2-oxo-1,2-dihydro-pyridin-4-yl)-phenyl]-ethyl}-1,10,14-trioxa-3-aza-dispiro[5.2.5.2]hexadecan-2-one] | > 10 µM
2 | C[C@@H](c1ccc(-c2ccc(C(=O)N(C)C)nc2)cc1)N1CCC2(CCC3(CC2)OCC(C)(C)CO3)OC1=O [Example 17, 5-{4-[(S)-1-(12,12-Dimethyl-2-oxo-1,10,14-trioxa-3-aza-dispiro[5.2.5.2]hexadec-3-yl)-ethyl]-phenyl}-pyridine-2-carboxylic acid dimethylamide] | > 10 µM
